Laboratory results as given in the NIST ThermoML archive (doi:10.1016/j.jct.2015.03.001).
± gives the expanded uncertainty stated by the source.

Tests used:
[1] = refractive index (Na D-line) (dimensionless); xn = mol fraction of the nth substance listed; settings: 99 kPa, Liquid, Abbe refractometer
[2] = relative permittivity at various frequencies (dimensionless); xn = mol fraction of the nth substance listed; settings: 99 kPa, Liquid, Frequency=2 MHz, Parallel plate capacitor

CCC(C)Cl (centres undefined) [2-chlorobutane] + CCCCCC
Settings | refractive index, 283.15 K | refractive index, 298.15 K | refractive index, 313.15 K | relative permittivity, 283.15 K | relative permittivity, 298.15 K | relative permittivity, 313.15 K
[1], x2 = 0 | 1.40226 ± 0.00031 | 1.39404 ± 0.00031 | 1.38562 ± 0.00031 | – | – | –
[1], x2 = 0.0471 | 1.40083 ± 0.00031 | 1.3926 ± 0.00031 | 1.38418 ± 0.00031 | – | – | –
[1], x2 = 0.0973 | 1.39939 ± 0.00031 | 1.39115 ± 0.00031 | 1.38274 ± 0.00031 | – | – | –
[1], x2 = 0.1986 | 1.39658 ± 0.00031 | 1.38833 ± 0.00031 | 1.37993 ± 0.00031 | – | – | –
[1], x2 = 0.293 | 1.39412 ± 0.00031 | 1.38584 ± 0.00031 | 1.37742 ± 0.00031 | – | – | –
[1], x2 = 0.4036 | 1.39142 ± 0.00031 | 1.38315 ± 0.00031 | 1.3747 ± 0.00031 | – | – | –
[1], x2 = 0.5099 | 1.38903 ± 0.00031 | 1.38071 ± 0.00031 | 1.37229 ± 0.00031 | – | – | –
[1], x2 = 0.6202 | 1.38673 ± 0.00031 | 1.37842 ± 0.00031 | 1.37002 ± 0.00031 | – | – | –
[1], x2 = 0.708 | 1.38508 ± 0.00031 | 1.37678 ± 0.00031 | 1.3684 ± 0.00031 | – | – | –
[1], x2 = 0.8068 | 1.38338 ± 0.00031 | 1.3751 ± 0.00031 | 1.36674 ± 0.00031 | – | – | –
[1], x2 = 0.908 | 1.38183 ± 0.00031 | 1.37356 ± 0.00031 | 1.36523 ± 0.00031 | – | – | –
[1], x2 = 0.9555 | 1.38113 ± 0.00031 | 1.37286 ± 0.00031 | 1.36454 ± 0.00031 | – | – | –
[2], x2 = 0 | – | – | – | 9.323 ± 0.093 | 8.652 ± 0.087 | 8.07 ± 0.081
[2], x2 = 0.0536 | – | – | – | 8.752 ± 0.088 | 8.128 ± 0.081 | 7.593 ± 0.076
[2], x2 = 0.0967 | – | – | – | 8.282 ± 0.083 | 7.716 ± 0.077 | 7.222 ± 0.072
[2], x2 = 0.1993 | – | – | – | 7.216 ± 0.072 | 6.76 ± 0.068 | 6.345 ± 0.063
[2], x2 = 0.2995 | – | – | – | 6.242 ± 0.062 | 5.881 ± 0.059 | 5.556 ± 0.056
[2], x2 = 0.3993 | – | – | – | 5.389 ± 0.054 | 5.093 ± 0.051 | 4.827 ± 0.048
[2], x2 = 0.4997 | – | – | – | 4.625 ± 0.046 | 4.39 ± 0.044 | 4.182 ± 0.042
[2], x2 = 0.5974 | – | – | – | 3.963 ± 0.04 | 3.786 ± 0.038 | 3.626 ± 0.036
[2], x2 = 0.7026 | – | – | – | 3.366 ± 0.034 | 3.225 ± 0.032 | 3.106 ± 0.031
[2], x2 = 0.8044 | – | – | – | 2.811 ± 0.028 | 2.72 ± 0.027 | 2.642 ± 0.026
[2], x2 = 0.9006 | – | – | – | 2.349 ± 0.024 | 2.296 ± 0.023 | 2.253 ± 0.023
[2], x2 = 0.9472 | – | – | – | 2.137 ± 0.021 | 2.105 ± 0.021 | 2.07 ± 0.021

CC(C)CCl [1-chloro-2-methylpropane] + CCCCCC
Settings | refractive index, 283.15 K | refractive index, 298.15 K | refractive index, 313.15 K | relative permittivity, 283.15 K | relative permittivity, 298.15 K | relative permittivity, 313.15 K
[1], x2 = 0 | 1.40354 ± 0.00031 | 1.39529 ± 0.00031 | 1.38683 ± 0.00031 | – | – | –
[1], x2 = 0.0484 | 1.40197 ± 0.00031 | 1.39371 ± 0.00031 | 1.38526 ± 0.00031 | – | – | –
[1], x2 = 0.0984 | 1.40039 ± 0.00031 | 1.39212 ± 0.00031 | 1.38366 ± 0.00031 | – | – | –
[1], x2 = 0.2052 | 1.39725 ± 0.00031 | 1.38895 ± 0.00031 | 1.38049 ± 0.00031 | – | – | –
[1], x2 = 0.3044 | 1.39452 ± 0.00031 | 1.3862 ± 0.00031 | 1.37775 ± 0.00031 | – | – | –
[1], x2 = 0.4034 | 1.39199 ± 0.00031 | 1.38367 ± 0.00031 | 1.37523 ± 0.00031 | – | – | –
[1], x2 = 0.5052 | 1.38961 ± 0.00031 | 1.3813 ± 0.00031 | 1.37287 ± 0.00031 | – | – | –
[1], x2 = 0.6134 | 1.38726 ± 0.00031 | 1.37897 ± 0.00031 | 1.37057 ± 0.00031 | – | – | –
[1], x2 = 0.7019 | 1.38551 ± 0.00031 | 1.37722 ± 0.00031 | 1.36883 ± 0.00031 | – | – | –
[1], x2 = 0.8082 | 1.38355 ± 0.00031 | 1.37526 ± 0.00031 | 1.3669 ± 0.00031 | – | – | –
[1], x2 = 0.908 | 1.38189 ± 0.00031 | 1.3736 ± 0.00031 | 1.36525 ± 0.00031 | – | – | –
[1], x2 = 0.9475 | 1.38129 ± 0.00031 | 1.37301 ± 0.00031 | 1.36468 ± 0.00031 | – | – | –
[2], x2 = 0 | – | – | – | 7.472 ± 0.075 | 7.074 ± 0.071 | 6.657 ± 0.067
[2], x2 = 0.0482 | – | – | – | 7.14 ± 0.071 | 6.773 ± 0.068 | 6.385 ± 0.064
[2], x2 = 0.1006 | – | – | – | 6.784 ± 0.068 | 6.442 ± 0.064 | 6.082 ± 0.061
[2], x2 = 0.1985 | – | – | – | 6.106 ± 0.061 | 5.816 ± 0.058 | 5.506 ± 0.055
[2], x2 = 0.2966 | – | – | – | 5.432 ± 0.054 | 5.191 ± 0.052 | 4.929 ± 0.049
[2], x2 = 0.3985 | – | – | – | 4.768 ± 0.048 | 4.573 ± 0.046 | 4.358 ± 0.044
[2], x2 = 0.5036 | – | – | – | 4.142 ± 0.041 | 3.991 ± 0.04 | 3.82 ± 0.038
[2], x2 = 0.5998 | – | – | – | 3.626 ± 0.036 | 3.513 ± 0.035 | 3.38 ± 0.034
[2], x2 = 0.6993 | – | – | – | 3.149 ± 0.032 | 3.064 ± 0.031 | 2.966 ± 0.03
[2], x2 = 0.8028 | – | – | – | 2.707 ± 0.027 | 2.648 ± 0.026 | 2.579 ± 0.026
[2], x2 = 0.9002 | – | – | – | 2.315 ± 0.023 | 2.278 ± 0.023 | 2.232 ± 0.022
[2], x2 = 0.9462 | – | – | – | 2.129 ± 0.021 | 2.102 ± 0.021 | 2.068 ± 0.021
